Our source for the Ki and IC50 values is patent publication US6750239B2, “Pyrazole-derived kinase inhibitors and uses thereof” (Vertex Pharmaceuticals Incorporated, priority 2001, dated 2004).

Some results are limits rather than exact numbers.

activated ERK2, sequence (P28482 whole entry): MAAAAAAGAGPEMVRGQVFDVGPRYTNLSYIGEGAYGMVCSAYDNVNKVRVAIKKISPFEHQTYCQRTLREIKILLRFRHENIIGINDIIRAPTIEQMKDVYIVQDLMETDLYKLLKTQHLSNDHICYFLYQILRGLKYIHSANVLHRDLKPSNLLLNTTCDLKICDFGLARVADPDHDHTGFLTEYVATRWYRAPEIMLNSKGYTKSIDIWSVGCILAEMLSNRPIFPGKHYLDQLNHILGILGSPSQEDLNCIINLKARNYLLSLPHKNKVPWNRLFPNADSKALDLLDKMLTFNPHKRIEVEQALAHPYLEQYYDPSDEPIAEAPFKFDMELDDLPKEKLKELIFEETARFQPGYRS

One test addresses activated ERK2 (Homo sapiens, UniProt P28482). Description: ERK2 inhibition spectrophotometric coupled-enzyme assay. Format: biochemical. As to conditions: activated ERK2 10 nM, 65 μM ATP, 30° C., pH 7.5; read-out: ERK2 Inhibitory Activity (Ki class). The method, then:
Compounds are assayed for the inhibition of ERK2 by a spectrophotometric coupled-enzyme assay (Fox et al (1998) Protein Sci 7, 2249). In this assay, a fixed concentration of activated ERK2 (10 nM) is incubated with various concentrations of the compound in DMSO (2.5%) for 10 min. at 30° C. in 0.1 M HEPES buffer, pH 7.5, containing 10 mM MgCl2, 2.5 mM phosphoenolpyruvate, 200 μM NADH, 150 μg/mL pyruvate kinase, 50 μg/mL lactate dehydrogenase, and 200 μM erktide peptide. The reaction is initiated by the addition of 65 μM ATP. The rate of decrease of absorbance at 340 nm is monitored, which indicates the extent of uninhibited enzyme present in the assay. The IC50 is evaluated from the rate data as a function of inhibitor concentration.
The compound numbers correspond to the compound numbers in Tables 1-3.
In the case of `CCCCNCc1ccc(-c2cn[nH]c2-c2c[nH]c(C(=O)NC(CO)c3ccc(F)c(Cl)c3)c2)cc1Cl` (centres unmarked) [II-7], the Ki is under 1000 nM.

Turning to `CC(=O)N[C@H](C(=O)NCc1ccc(-c2cn[nH]c2-c2c[nH]c(C(=O)N[C@H](CO)c3ccc(F)c(Cl)c3)c2)cc1Cl)C(C)C` [II-21], the Ki is under 1000 nM.

For `CCNCc1ccc(-c2c[nH]nc2-c2c[nH]c(C(=O)N[C@H](CO)c3ccc(F)c(Cl)c3)c2)cc1Cl` [II-26, 4-[4-(3-Chloro-4-ethylaminomethyl-phenyl)-1H-pyrazol-3-yl]-1H-pyrrole-2-carboxylic acid [1-(3-chloro-4-fluoro-phenyl)-2-hydroxy-ethyl]-amide], the Ki is under 1000 nM.

Regarding `CCC(=O)CN(CC(=O)CC)Cc1ccc(-c2cn[nH]c2-c2c[nH]c(C(=O)N[C@H](CO)c3ccc(F)c(Cl)c3)c2)cc1Cl` [II-73], the Ki is under 1000 nM.

`NC(=O)CN(CC(N)=O)Cc1ccc(-c2cn[nH]c2-c2c[nH]c(C(=O)N[C@H](CO)c3ccc(F)c(Cl)c3)c2)cc1Cl` [II-74]: the Ki is under 1000 nM.

For the molecule `N[C@@H](CO)C(=O)NCc1ccc(-c2cn[nH]c2-c2c[nH]c(C(=O)N[C@H](CO)c3ccc(F)c(Cl)c3)c2)cc1Cl` [II-75], the Ki was under 1000 nM.

For the molecule `NC(=O)CNCc1ccc(-c2cn[nH]c2-c2c[nH]c(C(=O)N[C@H](CO)c3ccc(F)c(Cl)c3)c2)cc1Cl` [II-76], the Ki is under 1000 nM.

Turning to `C[C@@H](O)[C@H](N)C(=O)NCc1ccc(-c2cn[nH]c2-c2c[nH]c(C(=O)N[C@H](CO)c3ccc(F)c(Cl)c3)c2)cc1Cl` [II-77], the Ki is under 1000 nM.

Turning to `CCOC(=O)NCc1ccc(-c2cn[nH]c2-c2c[nH]c(C(=O)N[C@H](CO)c3ccc(F)c(Cl)c3)c2)cc1Cl` [II-78], the Ki is under 1000 nM.

As for `CN(C)CCNCc1ccc(-c2cn[nH]c2-c2c[nH]c(C(=O)N[C@H](CO)c3ccc(F)c(Cl)c3)c2)cc1Cl` [II-79], the Ki was under 1000 nM.

With `CCN(CC)C(=O)CNCc1ccc(-c2cn[nH]c2-c2c[nH]c(C(=O)N[C@H](CO)c3ccc(F)c(Cl)c3)c2)cc1Cl` [II-80], the Ki was under 1000 nM.

For `O=C(O)CNCc1ccc(-c2cn[nH]c2-c2c[nH]c(C(=O)N[C@H](CO)c3ccc(F)c(Cl)c3)c2)cc1Cl` [II-81], the Ki was under 1000 nM.

Take `CCN(CC)CCNCc1ccc(-c2cn[nH]c2-c2c[nH]c(C(=O)N[C@H](CO)c3ccc(F)c(Cl)c3)c2)cc1Cl` [II-82]: the Ki was under 1000 nM.

As to `CCOC(=O)CN(C)Cc1ccc(-c2cn[nH]c2-c2c[nH]c(C(=O)N[C@H](CO)c3ccc(F)c(Cl)c3)c2)cc1Cl` [II-83], the Ki is under 1000 nM.

In the case of `CCOC(=O)CN(CC(=O)OCC)Cc1ccc(-c2cn[nH]c2-c2c[nH]c(C(=O)N[C@H](CO)c3ccc(F)c(Cl)c3)c2)cc1Cl` [II-84], the Ki was under 1000 nM.

Take `CCNC(=O)CN(CC(=O)NCC)Cc1ccc(-c2cn[nH]c2-c2c[nH]c(C(=O)N[C@H](CO)c3ccc(F)c(Cl)c3)c2)cc1Cl` [II-85]: the Ki is under 1000 nM.

In the case of `CCN(CC)C(=O)CN(CC(=O)N(CC)CC)Cc1ccc(-c2cn[nH]c2-c2c[nH]c(C(=O)N[C@H](CO)c3ccc(F)c(Cl)c3)c2)cc1Cl` [II-86], the Ki was under 1000 nM.

In a further test the test system is Colon cancer cells (HT-29 cell line). Description: ERK inhibition cell proliferation assay (3H-thymidine uptake). Type of test: cell-based. As to conditions: Homo sapiens, HT-29 cells, 3 days incubation. The method, then:
Compounds may be assayed for the inhibition of ERK2 by a cell proliferation assay. In this assay, a complete media is prepared by adding 10% fetal bovine serum and penicillin/streptomycin solution to RPMI 1640 medium (JRH Biosciences). Colon cancer cells (HT-29 cell line) are added to each of 84 wells of a 96 well plate at a seeding density of 10,000 cells/well/150 μL. The cells are allowed to attach to the plate by incubating at 37° C. for 2 hours. A solution of test compound is prepared in complete media by serial dilution to obtain the following concentrations: 20 μM, 6.7 μM, 2.2 μM, 0.74 μM, 0.25 μM, and 0.08 μM. The test compound solution (50 μL) is added to each of 72 cell-containing wells. To the 12 remaining cell-containing wells, only complete media (200 μL) is added to form a control group in order to measure maximal proliferation. To the remaining 12 empty wells, complete media is added to form a vehicle control group in order to measure background. The plates are incubated at 37° C. for 3 days. A stock solution of ^3H-thymidine (1 mCi/mL, New England Nuclear, Boston, Mass.) is diluted to […] in RPMI medium then 20 μL of this solution is added to each well. The plates are further incubated at 37° C. for 8 hours then harvested and analyzed for ^3H-thymidine uptake using a liquid scintillation counter.
For `CCCCNCc1ccc(-c2cn[nH]c2-c2c[nH]c(C(=O)NC(CO)c3ccc(F)c(Cl)c3)c2)cc1Cl` (centres unmarked) [II-7], the IC50 was under 10000 nM.

The molecule `CC(=O)N[C@H](C(=O)NCc1ccc(-c2cn[nH]c2-c2c[nH]c(C(=O)N[C@H](CO)c3ccc(F)c(Cl)c3)c2)cc1Cl)C(C)C` [II-21] yielded an IC50 of under 10000 nM.

Molecule `CCNCc1ccc(-c2c[nH]nc2-c2c[nH]c(C(=O)N[C@H](CO)c3ccc(F)c(Cl)c3)c2)cc1Cl` [II-26, 4-[4-(3-Chloro-4-ethylaminomethyl-phenyl)-1H-pyrazol-3-yl]-1H-pyrrole-2-carboxylic acid [1-(3-chloro-4-fluoro-phenyl)-2-hydroxy-ethyl]-amide] had an IC50 of under 10000 nM.

Usually Ki stands for the dissociation constant of the complex between target and ligand, obtained from inhibition or displacement. A word on the IC50: it is the concentration that gives 50% inhibition. Low readings indicate inhibition by little substance, high ones a need for much substance.
